# pEC50: −log10 of the molar value. Like-named read-outs stand apart in the source and are kept apart here. Where a SMILES comes first, the peptide text is derived from it. Where no end group is shown, it is not given here. [ ]: non-standard residue; d: D form. Cit = NC(=O)NCCC[C@H](N)C(=O)O
# Legend:
# HLA-DRB1*04:01 = HLA-DRB1*04:01 (Homo sapiens, UniProt P01903+P01911, A100K/A169T/F76Y/I96L/K127E/L162R/M171V/N62H/P40V/Q125Y/R42H/S133A/S149N/S66Y/V115G/V209L/W38E); assay: Peptide competition binding assay to HLA-DRB1*04:01; details: for Binding to HLA-DRB1*04:01 (in words): 15-mer T cell peptides, EC50 cutoff for measurable binding 50 μM
# [1] = tested on: CD4+ T cells in PBMC from HLA-DRB1*04:01+ subjects; assay: In vitro expansion of peptide-specific CD4+ T cells from PBMC and HLA class II tetramer staining; assay type: cell-based, human; details: for Responders (% in RA): RA subjects with positive in vitro response (>0.1% of CD4+ T cells tetramer+) of total tested, 10 μg/mL peptide, 14 days, n = 14, TNC44 and TNC59 n = 6; for Immunogenicity: Supplemental Table 1, ability to elicit an immune response in vitro (tetramer staining after expansion); for T cell responses in vitro (in words): noncitrullinated 15-mer versions
# Source text: TNC is a large protein (2110 amino acids in length) composed of an N-terminal assembly domain, 14.5 epidermal growth factor–like repeats (EGF-L), 8 constant fibronectin type III–like repeats (FNIII), and an additional 9 alternatively spliced FNIII elements, and a C-terminal fibrinogen-like globe (FBG) ([16]). Using a previously described algorithm ([9], [24]), we scanned the entire length of the TNC monomer and identified 64 arg-containing peptides with motifs that would predict to permit binding to HLA-DRB1*04:01 in either their noncitrullinated native form, citrullinated form, or both. Based on these predictions, we synthesized the citrullinated versions of these peptides and tested their ability to bind HLA-DRB1*04:01 and to elicit CD4^+ T cell expansion in vitro. Of the peptides synthesized, 8 cit-TNC peptides bound to HLA-DRB1*04:01 with moderate to high affinity (Table 1). Among these, cit-TNC17, cit-TNC22, cit-TNC45, cit-TNC50, and cit-TNC56 were determined to be the most immunogenic, based on their ability to drive epitope-specific T cell expansion, as measured by HLA class II tetramer (Tmr) staining of peripheral blood mononuclear cells (PBMC) from HLA-DRB1*04:01^+ subjects following 2 weeks of in vitro expansion (Table 1 and Supplemental Figure 1; supplemental material available online with this article; https://doi.org/10.1172/jci.insight.145217DS1).
# Recombinant HLA-DRB1*04:01 protein was produced by the BRI Tetramer Core as previously described ([56]). Soluble HLA-DRB1*04:01 monomer was purified from insect cell culture supernatants and biotinylated at a sequence-specific site using biotin ligase (Avidity) prior to dialysis into phosphate storage buffer. The biotinylated monomer was loaded with 0.2 mg/mL of peptide by incubating at 37°C for 72 hours in the presence of 2.5 mg/mL n-octyl β-D-glucopyranoside and 1 mM Pefabloc SC (Sigma-Aldrich). Peptide-loaded monomers were conjugated into Tmrs using fluorescently labeled streptavidin (Invitrogen) for 6–18 hours at room temperature at a molar ratio of 8:1.
# Cryopreserved PBMCs from RA and healthy subjects were cultured at 5 × 10^6 cells/well in a 48-well plate in RPMI-1640 + 10% HPS with 10 μg/mL of peptide. IL-2 (Novartis) was added at 325 IU/mL on day 6. On day 14, cells were stained for expression of Tmr-PE, CD25 APC (BD Biosciences), and CD4 FITC (BioLegend) (Supplemental Table 8) and then run on a FACSCanto. The data were analyzed by FlowJo software version 10.
# [2] = Supplemental Table 1, citrullinated (X) vs arginine (R) versions, cutoff in the peptide binding assay 50 μM
molecule,measurement,setting,value
H-QGQYELRVDLRDHGE-OH [TNC-56RR],pEC50,HLA-DRB1*04:01; [2],< 4.30
CC(C)C[C@H](NC(=O)[C@H](CCC(=O)O)NC(=O)[C@H](Cc1ccc(O)cc1)NC(=O)[C@H](CCC(N)=O)NC(=O)CNC(=O)[C@@H](N)CCC(N)=O)C(=O)N[C@@H](CCCNC(N)=O)C(=O)N[C@H](C(=O)N[C@@H](CC(=O)O)C(=O)N[C@@H](CC(C)C)C(=O)N[C@@H](CCCNC(=N)N)C(=O)N[C@@H](CC(=O)O)C(=O)N[C@@H](Cc1c[nH]cn1)C(=O)NCC(=O)N[C@@H](CCC(=O)O)C(=O)O)C(C)C [TNC-56XR] (H-QGQYEL[Cit]VDLRDHGE-OH),pEC50,HLA-DRB1*04:01; [2],5.06
CC[C@H](C)[C@H](NC(=O)[C@H](CC(C)C)NC(=O)[C@H](CO)NC(=O)[C@@H](N)C(C)C)C(=O)N[C@@H](CO)C(=O)N[C@@H](CCCNC(N)=O)C(=O)N[C@@H](CCCNC(=N)N)C(=O)NCC(=O)N[C@@H](CC(=O)O)C(=O)N[C@@H](CCSC)C(=O)N[C@@H](CO)C(=O)N[C@@H](CO)C(=O)N[C@@H](CC(N)=O)C(=O)N1CCC[C@H]1C(=O)N[C@@H](C)C(=O)O [TNC-17XR] (H-VSLIS[Cit]RGDMSSNPA-OH),pEC50,HLA-DRB1*04:01; [2],< 4.30
CC[C@H](C)[C@H](NC(=O)[C@H](CCC(=O)O)NC(=O)[C@H](C)NC(=O)[C@H](CCCNC(N)=O)NC(=O)[C@H](CC(C)C)NC(=O)[C@@H]1CCCN1C(=O)[C@H](CCCCN)NC(=O)[C@@H](N)[C@@H](C)O)C(=O)N[C@H](C(=O)N[C@H](C(=O)N[C@@H](CCC(=O)O)C(=O)N[C@@H](C)C(=O)N[C@@H](CCC(=O)O)C(=O)N1CCC[C@H]1C(=O)N[C@@H](CCC(=O)O)C(=O)O)[C@@H](C)O)C(C)C [TNC44] (H-TKPL[Cit]AEIVTEAEPE-OH),pEC50,HLA-DRB1*04:01,4.48
same,Responders (% in RA),[1],33%
H-VSLISRRGDMSSNPA-OH [TNC-17RR],pEC50,HLA-DRB1*04:01; [2],< 4.30
"CEYEVSLISRRGDMSSNPAC [arg-TNC17, Cys-flanked arginine TNC17 peptide used in ELISA]",Binding to HLA-DRB1*04:01 (in words),HLA-DRB1*04:01,did not
CC(C)C[C@H](NC(=O)[C@H](CCCNC(N)=O)NC(=O)[C@H](Cc1ccc(O)cc1)NC(=O)[C@H](CCCNC(=N)N)NC(=O)[C@H](CC(=O)O)NC(=O)[C@@H](N)Cc1ccccc1)C(=O)N[C@@H](CC(N)=O)C(=O)N[C@@H](Cc1ccc(O)cc1)C(=O)N[C@@H](CO)C(=O)N[C@@H](CC(C)C)C(=O)N1CCC[C@H]1C(=O)N[C@H](C(=O)NCC(=O)N[C@@H](CCC(N)=O)C(=O)N[C@@H](Cc1c[nH]c2ccccc12)C(=O)O)[C@@H](C)O [TNC-22RX] (H-FDRY[Cit]LNYSLPTGQW-OH),pEC50,HLA-DRB1*04:01; [2],6.05
same,Immunogenicity,[1],Yes
"CTPLAKFDRYRLNYSLPTGC [arg-TNC22, Cys-flanked arginine TNC22 peptide used in ELISA]",Binding to HLA-DRB1*04:01 (in words),HLA-DRB1*04:01,bound
same,T cell responses in vitro (in words),[1],had the ability to elicit T cell responses in vitro
CC[C@H](C)[C@H](NC(=O)[C@H](CC(C)C)NC(=O)[C@H](CO)NC(=O)[C@@H](N)C(C)C)C(=O)N[C@@H](CO)C(=O)N[C@@H](CCCNC(N)=O)C(=O)N[C@@H](CCCNC(N)=O)C(=O)NCC(=O)N[C@@H](CC(=O)O)C(=O)N[C@@H](CCSC)C(=O)N[C@@H](CO)C(=O)N[C@@H](CO)C(=O)N[C@@H](CC(N)=O)C(=O)N1CCC[C@H]1C(=O)N[C@@H](C)C(=O)O [TNC17] (H-VSLIS[Cit][Cit]GDMSSNPA-OH),pEC50,HLA-DRB1*04:01,5.44
PDGFRLSWTADEGVF [TNC-45R],pEC50,HLA-DRB1*04:01; [2],5.24
same,Immunogenicity,[1],Yes
CC[C@H](C)[C@H](NC(=O)[C@H](C)NC(=O)[C@@H]1CCCN1C(=O)[C@H](CCC(N)=O)NC(=O)[C@H](Cc1c[nH]c2ccccc12)NC(=O)[C@H](CCCNC(N)=O)NC(=O)[C@H](C)NC(=O)[C@@H](N)CC(C)C)C(=O)N[C@@H](C)C(=O)N[C@H](C(=O)N[C@H](C(=O)N[C@@H](CC(=O)O)C(=O)N[C@@H](CO)C(=O)N[C@@H](Cc1ccc(O)cc1)C(=O)N[C@H](C(=O)O)C(C)C)C(C)C)[C@@H](C)O [TNC52] (H-LA[Cit]WQPAIATVDSYV-OH),pEC50,HLA-DRB1*04:01,4.54
same,Responders (% in RA),[1],33%
VESFRITYVPITGGT [TNC-50R],pEC50,HLA-DRB1*04:01; [2],6.00
same,Immunogenicity,[1],Yes
CC(C)C[C@H](NC(=O)[C@H](CCCNC(=N)N)NC(=O)[C@H](Cc1ccc(O)cc1)NC(=O)[C@H](CCCNC(N)=O)NC(=O)[C@H](CC(=O)O)NC(=O)[C@@H](N)Cc1ccccc1)C(=O)N[C@@H](CC(N)=O)C(=O)N[C@@H](Cc1ccc(O)cc1)C(=O)N[C@@H](CO)C(=O)N[C@@H](CC(C)C)C(=O)N1CCC[C@H]1C(=O)N[C@H](C(=O)NCC(=O)N[C@@H](CCC(N)=O)C(=O)N[C@@H](Cc1c[nH]c2ccccc12)C(=O)O)[C@@H](C)O [TNC-22XR] (H-FD[Cit]YRLNYSLPTGQW-OH),pEC50,HLA-DRB1*04:01; [2],6.22
same,Immunogenicity,[1],Yes
CC[C@H](C)[C@H](NC(=O)[C@H](CC(C)C)NC(=O)[C@H](CO)NC(=O)[C@@H](N)C(C)C)C(=O)N[C@@H](CO)C(=O)N[C@@H](CCCNC(=N)N)C(=O)N[C@@H](CCCNC(N)=O)C(=O)NCC(=O)N[C@@H](CC(=O)O)C(=O)N[C@@H](CCSC)C(=O)N[C@@H](CO)C(=O)N[C@@H](CO)C(=O)N[C@@H](CC(N)=O)C(=O)N1CCC[C@H]1C(=O)N[C@@H](C)C(=O)O [TNC-17RX] (H-VSLISR[Cit]GDMSSNPA-OH),pEC50,HLA-DRB1*04:01; [2],5.33
"CQGQYELRVDLRDHGETAFC [arg-TNC56, Cys-flanked arginine TNC56 peptide used in ELISA]",Binding to HLA-DRB1*04:01 (in words),HLA-DRB1*04:01,did not
"CVSDATPDGFRLSWTADEGC [arg-TNC45, Cys-flanked arginine TNC45 peptide used in ELISA]",Binding to HLA-DRB1*04:01 (in words),HLA-DRB1*04:01,bound
same,T cell responses in vitro (in words),[1],had the ability to elicit T cell responses in vitro
CC(C)C[C@H](NC(=O)[C@H](CCC(=O)O)NC(=O)[C@H](Cc1ccc(O)cc1)NC(=O)[C@H](CCC(N)=O)NC(=O)CNC(=O)[C@@H](N)CCC(N)=O)C(=O)N[C@@H](CCCNC(=N)N)C(=O)N[C@H](C(=O)N[C@@H](CC(=O)O)C(=O)N[C@@H](CC(C)C)C(=O)N[C@@H](CCCNC(N)=O)C(=O)N[C@@H](CC(=O)O)C(=O)N[C@@H](Cc1c[nH]cn1)C(=O)NCC(=O)N[C@@H](CCC(=O)O)C(=O)O)C(C)C [TNC-56RX] (H-QGQYELRVDL[Cit]DHGE-OH),pEC50,HLA-DRB1*04:01; [2],< 4.30
CSCC[C@H](NC(=O)[C@@H](N)CO)C(=O)N[C@@H](C)C(=O)N[C@@H](Cc1ccc(O)cc1)C(=O)N[C@@H](Cc1c[nH]cn1)C(=O)N[C@@H](CC(N)=O)C(=O)NCC(=O)N[C@@H](CCCNC(N)=O)C(=O)N[C@@H](CO)C(=O)N[C@@H](Cc1ccccc1)C(=O)N[C@@H](CO)C(=O)N[C@H](C(=O)N[C@@H](Cc1ccccc1)C(=O)N[C@@H](CC(=O)O)C(=O)N[C@@H](CCCCN)C(=O)O)[C@@H](C)O [TNC59] (H-SMAYHNG[Cit]SFSTFDK-OH),pEC50,HLA-DRB1*04:01,4.60
same,Responders (% in RA),[1],33%
CC(C)C[C@H](NC(=O)[C@H](CCC(=O)O)NC(=O)[C@H](Cc1ccc(O)cc1)NC(=O)[C@H](CCC(N)=O)NC(=O)CNC(=O)[C@@H](N)CCC(N)=O)C(=O)N[C@@H](CCCNC(N)=O)C(=O)N[C@H](C(=O)N[C@@H](CC(=O)O)C(=O)N[C@@H](CC(C)C)C(=O)N[C@@H](CCCNC(N)=O)C(=O)N[C@@H](CC(=O)O)C(=O)N[C@@H](Cc1c[nH]cn1)C(=O)NCC(=O)N[C@@H](CCC(=O)O)C(=O)O)C(C)C [TNC56] (H-QGQYEL[Cit]VDL[Cit]DHGE-OH),pEC50,HLA-DRB1*04:01,5.05
FDRYRLNYSLPTGQW [TNC-22RR],pEC50,HLA-DRB1*04:01; [2],6.00
same,Immunogenicity,[1],Yes
"CPTAQVESFRITYVPITGGC [arg-TNC50, Cys-flanked arginine TNC50 peptide used in ELISA]",Binding to HLA-DRB1*04:01 (in words),HLA-DRB1*04:01,bound
same,T cell responses in vitro (in words),[1],had the ability to elicit T cell responses in vitro

# From article PMC8021118, “Shared recognition of citrullinated tenascin-C peptides by T and B cells in rheumatoid arthritis” (JCI Insight, 2021)
